Reference: paper PMC11783113, “Mechanistic insights into the selective targeting of P2X3 receptor by camlipixant antagonist” (The Journal of Biological Chemistry, 2024)
Values belong to the molecule of their own block, whether it stands above or below them.

Assays:
[1] = target: P2X3 receptor (Canis lupus), first five N-terminal and last 33 C-terminal residues deleted (Canis lupus sp.); test: cryo-EM structure; camlipixant-bound P2X3 reconstituted into peptidisc; camlipixant at a molar ratio of 1:5, 30 min on ice; C3 symmetry
[2] = target: T1, P2X3 receptor (Canis lupus, UniProt A0A8I3S575); test: MST Kd; cryo-EM structure of the P2X3–ATP complex; type: binding
T1 construct: gene P2RX3; deletion of five first residues in the N-terminal region and the 33 last residues in the C-terminal region; homotrimer
T1 sequence (A0A8I3S575 6-364): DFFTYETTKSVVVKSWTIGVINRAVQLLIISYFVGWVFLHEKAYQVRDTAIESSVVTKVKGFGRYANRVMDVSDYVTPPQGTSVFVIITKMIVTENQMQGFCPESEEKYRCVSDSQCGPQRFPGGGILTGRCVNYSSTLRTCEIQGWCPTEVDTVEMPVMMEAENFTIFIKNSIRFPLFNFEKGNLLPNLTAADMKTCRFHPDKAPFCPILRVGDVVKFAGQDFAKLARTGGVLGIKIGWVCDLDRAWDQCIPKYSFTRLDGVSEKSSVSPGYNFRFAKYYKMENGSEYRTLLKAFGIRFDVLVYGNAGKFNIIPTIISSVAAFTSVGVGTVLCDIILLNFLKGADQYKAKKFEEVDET

[3] = target: T1, P2X3 receptor; test: ITC Kd; cryo-EM structure of the complex in peptidisc; also calcium influx IC50 […] in cells; type: binding

- stoichiometry N [1]: 3
Molecule: P2X3 receptor (Canis lupus), first five N-terminal and last 33 C-terminal residues deleted

Molecule: Nc1ncnc2c1ncn2[C@@H]1O[C@H](COP(=O)(O)OP(=O)(O)OP(=O)(O)O)[C@@H](O)[C@H]1O [ATP]
- Kd [2]: 2000 nM

Molecule: CNC(=O)c1cc(F)c(-c2nc3cc(C)ccn3c2C[C@H]2CN(C(=O)OC)CCO2)c(F)c1 [camlipixant]
- Kd [3]: 100 nM
